Source: ChEMBL document CHEMBL1149183, “Novel benzo[1,4]diazepin-2-one derivatives as endothelin receptor antagonists” (J Med Chem, 2004)
Values belong to the molecule of their own block, whether it stands above or below them.

Experiments:
[1] = target: T1, Endothelin receptor type B (Homo sapiens, UniProt P24530); assay: Antagonist activity towards human recombinant Endothelin B receptor expressed in chinese hamster ovary (CHO) cells determined using [125I]ET1 as radioligand; assay type: functional, cell-based
T1 sequence (P24530 whole entry): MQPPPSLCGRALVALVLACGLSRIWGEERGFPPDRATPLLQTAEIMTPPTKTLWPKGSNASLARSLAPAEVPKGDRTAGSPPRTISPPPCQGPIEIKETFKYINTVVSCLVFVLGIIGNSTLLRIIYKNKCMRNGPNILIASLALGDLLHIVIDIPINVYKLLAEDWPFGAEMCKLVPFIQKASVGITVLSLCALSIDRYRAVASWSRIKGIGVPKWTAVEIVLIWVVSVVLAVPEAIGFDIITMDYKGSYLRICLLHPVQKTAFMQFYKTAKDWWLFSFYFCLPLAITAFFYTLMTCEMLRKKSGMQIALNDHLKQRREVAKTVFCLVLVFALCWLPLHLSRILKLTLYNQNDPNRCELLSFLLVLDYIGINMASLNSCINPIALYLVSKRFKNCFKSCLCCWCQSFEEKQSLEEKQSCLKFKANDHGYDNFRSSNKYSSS

Endothelin-1 receptor = target: T2, Endothelin-1 receptor (Homo sapiens, UniProt P25101); assay: Antagonist activity towards human recombinant Endothelin A receptor expressed in chinese hamster ovary (CHO) cells determined using [125I]ET1 as radioligand; assay type: functional, cell-based
T2 sequence (P25101 whole entry): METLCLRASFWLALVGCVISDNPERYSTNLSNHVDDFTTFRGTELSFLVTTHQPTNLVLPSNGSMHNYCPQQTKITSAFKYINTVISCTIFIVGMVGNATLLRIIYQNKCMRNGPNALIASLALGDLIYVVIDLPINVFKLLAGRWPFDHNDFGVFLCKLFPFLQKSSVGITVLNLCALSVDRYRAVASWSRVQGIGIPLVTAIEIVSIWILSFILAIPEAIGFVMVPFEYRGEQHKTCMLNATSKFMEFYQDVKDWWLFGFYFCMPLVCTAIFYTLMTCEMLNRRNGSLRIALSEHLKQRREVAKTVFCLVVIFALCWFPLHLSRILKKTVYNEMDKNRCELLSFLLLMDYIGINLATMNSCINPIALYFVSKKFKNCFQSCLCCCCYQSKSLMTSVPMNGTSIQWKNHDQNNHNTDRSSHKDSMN

Compound: Cc1cc(C)nc(O[C@H](C(=O)O)[C@@]2(c3ccccc3)NCc3nnc(CC(=O)O)n3-c3ccccc32)n1 (racemic)
IC50 [1]: 261 nM | IC50 (Endothelin-1 receptor): 58.8 nM

Compound: Cc1cc(C)nc(O[C@H](C(=O)O)[C@@]2(c3ccccc3)NCC(=O)N(CC(=O)O)c3ccccc32)n1 (racemic)
IC50 [1]: 558 nM | IC50 (Endothelin-1 receptor): 13 nM

Compound: COc1ccccc1O[C@H](C(=O)O)[C@@]1(c2ccccc2)NCC(=O)N(Cc2c(Cl)cccc2Cl)c2ccccc21 (racemic)
IC50 [1]: > 10000 nM | IC50 (Endothelin-1 receptor): 5920 nM

Compound: Cc1ccccc1O[C@H](C(=O)O)[C@@]1(c2ccccc2)NCC(=O)N(Cc2c(Cl)cccc2Cl)c2ccccc21 (racemic)
IC50 [1]: > 10000 nM | IC50 (Endothelin-1 receptor): > 10000 nM

Compound: COc1cnc(O[C@H](C(=O)O)[C@@]2(c3ccccc3)NCC(=O)N(C)c3ccccc32)nc1 (racemic)
IC50 [1]: 9250 nM | IC50 (Endothelin-1 receptor): 384 nM

Compound: COc1cc(OC)cc(O[C@H](C(=O)O)[C@@]2(c3ccccc3)NCC(=O)N(C)c3cc(OC)ccc32)c1 (racemic)
IC50 [1]: 7780 nM | IC50 (Endothelin-1 receptor): 3950 nM

Compound: COc1cc(OC)cc(O[C@H](C(=O)O)[C@@]2(c3ccccc3)NCC(=O)N(C)c3cc(OC)c(OC)cc32)c1 (racemic)
IC50 [1]: 8030 nM | IC50 (Endothelin-1 receptor): 443 nM

Compound: COc1cc(OC)cc(O[C@H](C(=O)O)[C@@]2(c3ccccc3)NCC(=O)N(C)c3ccccc32)c1 (racemic)
IC50 [1]: 6270 nM

Compound: O=C(O)[C@@H](Oc1ccccc1Cl)[C@@]1(c2ccccc2)NCC(=O)N(Cc2c(Cl)cccc2Cl)c2ccccc21 (racemic)
IC50 [1]: > 10000 nM | IC50 (Endothelin-1 receptor): > 10000 nM

Compound: CC(C)c1ccc(O[C@H](C(=O)O)[C@@]2(c3ccccc3)NCC(=O)N(Cc3c(Cl)cccc3Cl)c3ccccc32)cc1 (racemic)
IC50 [1]: 8620 nM | IC50 (Endothelin-1 receptor): > 10000 nM

Compound: Cc1ccc(C)c(O[C@H](C(=O)O)[C@@]2(c3ccccc3)NCC(=O)N(Cc3c(Cl)cccc3Cl)c3ccccc32)c1 (racemic)
IC50 [1]: > 1000 nM | IC50 (Endothelin-1 receptor): > 10000 nM

Compound: O=C(O)[C@@H](Oc1ccccc1)[C@@]1(c2ccccc2)NCC(=O)N(Cc2c(Cl)cccc2Cl)c2ccccc21 (racemic)
IC50 [1]: 3700 nM | IC50 (Endothelin-1 receptor): 211 nM

Compound: Cc1cc(C)nc(O[C@H](C(=O)O)[C@@]2(c3ccccc3)NCC(=O)N(CCN(C)C)c3ccccc32)n1 (racemic)
IC50 [1]: 1780 nM | IC50 (Endothelin-1 receptor): 387 nM

Compound: CN1C(=O)CN[C@](c2ccccc2)([C@H](Oc2ncccn2)C(=O)O)c2ccccc21 (racemic)
IC50 [1]: > 10000 nM

Compound: COc1ccc(CN2C(=O)CN[C@](c3cc(C)cc(C)c3)([C@H](Oc3nc(C)cc(C)n3)C(=O)O)c3ccccc32)cc1 (racemic)
IC50 [1]: 761 nM | IC50 (Endothelin-1 receptor): 278 nM

Compound: Cc1cccc(O[C@H](C(=O)O)[C@@]2(c3ccccc3)NCC(=O)N(Cc3c(Cl)cccc3Cl)c3ccccc32)c1C (racemic)
IC50 [1]: > 1000 nM | IC50 (Endothelin-1 receptor): > 10000 nM

Compound: Cc1cc(C)nc(O[C@H](C(=O)O)[C@@]2(c3ccccc3)NCC(=O)N(CC3CC3)c3ccccc32)n1 (racemic)
IC50 [1]: 87.8 nM | IC50 (Endothelin-1 receptor): 7.3 nM

Compound: O=C(O)[C@@H](Oc1cccc(Cl)c1)[C@@]1(c2ccccc2)NCC(=O)N(Cc2c(Cl)cccc2Cl)c2ccccc21 (racemic)
IC50 [1]: 3150 nM | IC50 (Endothelin-1 receptor): 101 nM

Compound: Cc1cc(C)nc(O[C@H](C(=O)O)[C@@]2(c3ccccc3)NCCCc3ccccc32)n1 (racemic)
IC50 [1]: 7840 nM | IC50 (Endothelin-1 receptor): 91.7 nM

Compound: COc1cc(OC)cc(O[C@H](C(=O)O)[C@@]2(c3ccccc3)NCC(=O)N(C)c3cc(Cl)ccc32)c1 (racemic)
IC50 [1]: 5600 nM | IC50 (Endothelin-1 receptor): 3840 nM

Compound: Cc1cc(C)nc(O[C@H](C(=O)O)[C@@]2(c3ccccc3)NCC(=O)N(Cc3ccc(C(=O)O)cc3)c3ccccc32)n1 (racemic)
IC50 [1]: 3530 nM | IC50 (Endothelin-1 receptor): 123 nM

Compound: CN1C(=O)CN[C@](c2ccccc2)([C@H](Oc2ncc(Br)cn2)C(=O)O)c2ccccc21 (racemic)
IC50 [1]: 9480 nM | IC50 (Endothelin-1 receptor): 927 nM

Compound: Cc1cc(C)nc(O[C@H](C(=O)O)[C@@]2(c3ccccc3)NCc3nnc(C)n3-c3ccccc32)n1 (racemic)
IC50 [1]: 250 nM

Compound: Cc1cc(C)nc(O[C@H](C(=O)O)[C@@]2(c3ccccc3)NCCOc3ccccc32)n1 (racemic)
IC50 [1]: 3640 nM | IC50 (Endothelin-1 receptor): 69.8 nM

Compound: COc1cc(OC)nc(O[C@H](C(=O)O)[C@@]2(c3ccccc3)NCC(=O)N(C)c3ccccc32)n1 (racemic)
IC50 [1]: 473 nM | IC50 (Endothelin-1 receptor): 23.4 nM

Continued by falling IC50 [1], values first:

IC50 [1]: 392 nM | IC50 (Endothelin-1 receptor): 46.2 nM
Compound: COc1cc(OC)cc(O[C@H](C(=O)O)[C@@]2(c3ccccc3)NCC(=O)N(Cc3c(Cl)cccc3Cl)c3ccccc32)c1 (racemic)

IC50 [1]: 253 nM | IC50 (Endothelin-1 receptor): 45.9 nM
Compound: Cc1cc(C)nc(O[C@H](C(=O)O)[C@@]2(c3ccccc3)NCC(=O)N(CCCC(=O)O)c3ccccc32)n1 (racemic)

IC50 [1]: 241 nM | IC50 (Endothelin-1 receptor): 24.9 nM
Compound: COc1ccc(CN2C(=O)CN[C@](c3cccc(C(F)(F)F)c3)([C@H](Oc3nc(C)cc(C)n3)C(=O)O)c3ccccc32)cc1 (racemic)

IC50 [1]: 181 nM | IC50 (Endothelin-1 receptor): 221 nM
Compound: COc1ccc(CN2C(=O)CN[C@](c3ccc(C)cc3)([C@H](Oc3nc(C)cc(C)n3)C(=O)O)c3ccccc32)cc1

IC50 [1]: 122 nM | IC50 (Endothelin-1 receptor): 17.3 nM
Compound: Cc1cc(C)nc(O[C@H](C(=O)O)[C@@]2(c3ccccc3)NCC(=O)N(Cc3ccc(Cl)cc3)c3ccccc32)n1 (racemic)

IC50 [1]: 119 nM | IC50 (Endothelin-1 receptor): 25.8 nM
Compound: Cc1cc(C)nc(O[C@H](C(=O)O)[C@@]2(c3ccccc3)NCC(=O)N(Cc3ccc(Br)cc3)c3ccccc32)n1 (racemic)

IC50 [1]: 109 nM | IC50 (Endothelin-1 receptor): 6 nM
Compound: Cc1cc(C)nc(O[C@H](C(=O)O)[C@@]2(c3ccccc3)NCC(=O)N(Cc3ccc(F)cc3F)c3ccccc32)n1 (racemic)

IC50 [1]: 109 nM | IC50 (Endothelin-1 receptor): 20.5 nM
Compound: Cc1cc(C)cc(O[C@H](C(=O)O)[C@@]2(c3ccccc3)NCC(=O)N(Cc3c(Cl)cccc3Cl)c3ccccc32)c1 (racemic)

IC50 [1]: 82 nM | IC50 (Endothelin-1 receptor): 83.4 nM
Compound: Cc1cc(C)nc(O[C@H](C(=O)O)[C@@]2(c3ccccc3)NCC(=O)N(CC3CCCCC3)c3ccccc32)n1 (racemic)

IC50 [1]: 80.2 nM
Compound: COc1ccc(CN2C(=O)CN[C@](c3ccccc3F)([C@H](Oc3nc(C)cc(C)n3)C(=O)O)c3ccccc32)cc1 (racemic)

IC50 [1]: 68.8 nM | IC50 (Endothelin-1 receptor): 30.5 nM
Compound: Cc1ccc(CN2C(=O)CN[C@](c3ccccc3)([C@H](Oc3nc(C)cc(C)n3)C(=O)O)c3ccccc32)cc1 (racemic)

IC50 [1]: 55 nM | IC50 (Endothelin-1 receptor): 8.9 nM
Compound: Cc1cc(C)nc(O[C@H](C(=O)O)[C@@]2(c3ccccc3)NCC(=O)N(Cc3ccccc3C)c3ccccc32)n1 (racemic)

IC50 [1]: 49.3 nM | IC50 (Endothelin-1 receptor): 9.1 nM
Compound: COc1ccc(CN2C(=O)CN[C@](c3cccc(F)c3)([C@H](Oc3nc(C)cc(C)n3)C(=O)O)c3ccccc32)cc1 (racemic)

IC50 [1]: 48.1 nM | IC50 (Endothelin-1 receptor): 10.2 nM
Compound: Cc1cc(C)nc(O[C@H](C(=O)O)[C@@]2(c3ccccc3)NCC(=O)N(Cc3ccccc3Cl)c3ccccc32)n1 (racemic)

IC50 [1]: 47.8 nM | IC50 (Endothelin-1 receptor): 7.5 nM
Compound: COCCOCN1C(=O)CN[C@](c2ccccc2)([C@H](Oc2nc(C)cc(C)n2)C(=O)O)c2ccccc21 (racemic)

IC50 [1]: 32.9 nM | IC50 (Endothelin-1 receptor): 6.7 nM
Compound: Cc1cc(C)nc(O[C@H](C(=O)O)[C@@]2(c3ccccc3)NCC(=O)N(Cc3cc(F)ccc3F)c3ccccc32)n1 (racemic)

IC50 [1]: 30.8 nM | IC50 (Endothelin-1 receptor): 11 nM
Compound: Cc1cc(C)nc(O[C@H](C(=O)O)[C@@]2(c3ccccc3)NCC(=O)N(Cc3cccc(OC(F)(F)F)c3)c3ccccc32)n1 (racemic)

IC50 [1]: 26.8 nM | IC50 (Endothelin-1 receptor): 6.7 nM
Compound: Cc1cc(C)nc(O[C@H](C(=O)O)[C@@]2(c3ccccc3)NCC(=O)N(Cc3cccc(F)c3)c3ccccc32)n1 (racemic)

IC50 [1]: 25.5 nM | IC50 (Endothelin-1 receptor): 6.4 nM
Compound: Cc1cc(C)nc(O[C@H](C(=O)O)[C@@]2(c3ccccc3)NCC(=O)N(Cc3cccc(Br)c3)c3ccccc32)n1 (racemic)

IC50 [1]: 24.1 nM | IC50 (Endothelin-1 receptor): 17.1 nM
Compound: Cc1cc(C)nc(O[C@H](C(=O)O)[C@@]2(c3ccccc3)NCC(=O)N(Cc3ccc(C(C)(C)C)cc3)c3ccccc32)n1 (racemic)

IC50 [1]: 22.5 nM | IC50 (Endothelin-1 receptor): 104 nM
Compound: Cc1cc(C)nc(O[C@H](C(=O)O)[C@@]2(c3ccccc3)NCC(=O)N(Cc3ccccc3C(F)(F)F)c3ccccc32)n1 (racemic)

IC50 [1]: 18.5 nM | IC50 (Endothelin-1 receptor): 3.7 nM
Compound: Cc1cc(C)nc(O[C@H](C(=O)O)[C@@]2(c3ccccc3)NCC(=O)N(Cc3cccc(F)c3F)c3ccccc32)n1 (racemic)

IC50 [1]: 18.3 nM | IC50 (Endothelin-1 receptor): 17.1 nM
Compound: Cc1cc(C)nc(O[C@H](C(=O)O)[C@@]2(c3ccccc3)NCC(=O)N(CCCc3ccccc3)c3ccccc32)n1 (racemic)

IC50 [1]: 16.7 nM | IC50 (Endothelin-1 receptor): 5 nM
Compound: Cc1cccc(CN2C(=O)CN[C@](c3ccccc3)([C@H](Oc3nc(C)cc(C)n3)C(=O)O)c3ccccc32)c1 (racemic)

IC50 [1]: 15.6 nM | IC50 (Endothelin-1 receptor): 9.1 nM
Compound: Cc1cc(C)nc(O[C@H](C(=O)O)[C@@]2(c3ccccc3)NCC(=O)N(Cc3cccc(C(F)(F)F)c3)c3ccccc32)n1 (racemic)

IC50 [1]: 13.1 nM | IC50 (Endothelin-1 receptor): 7.9 nM
Compound: Cc1cc(C)nc(O[C@H](C(=O)O)[C@@]2(c3ccccc3)NCC(=O)N(Cc3cc(F)cc(F)c3)c3ccccc32)n1 (racemic)
